Measurements reported in patent publication US20220213066A1, “SALTS OF A CLASS OF PYRIMIDINE COMPOUNDS, POLYMORPHS, AND PHARMACEUTICAL COMPOSITIONS THEREOF, PREAPRATION METHODS THEREFOR AND USES THEREOF” (INVENTISBIO CO., LTD., priority 2019, published 2022).
Counter-ions that a name gives are not always drawn.

Assay: dynamic vapor absorption and desorption analysis (DVS)
Format: physicochemical
Conditions: for weight gain under 80% relative humidity / hygroscopicity of the sample: DVS, 25° C.; for hygroscopicity of the sample: graded in words; for crystalline form of the sample after the DVS test: XRPD overlay before and after DVS test
Procedure: The instrument used in dynamic vapor absorption and desorption analysis (DVS) was DVS Intrinsic (SMS, UK). The sample was placed in the sample basket of the instrument for automatic weighing, then heated to 40° C., and dried under a nitrogen stream to a dm/dt of less than 0.002%. The measurement was started after the temperature was dropped to 25° C., The instrument parameters were as follows.
Time per step: 60 min Sample temperature: 25° C. Cycle: entire cycle
Data storage rate: 5 s Total flow rate: 200 sccm Total flow rate after the test: 200 sccm

| Compound | weight gain under 80% relative humidity | hygroscopicity of the sample | crystalline form of the sample after the DVS test |
| --- | --- | --- | --- |
| C=CC(=O)Nc1cc(Nc2nccc(-c3cn(CC(F)(F)F)c4ccccc34)n2)c(OC)cc1N(C)CCN(C)C [crystalline form I of benzenesulfonate] | about 0.41% | slightly hygroscopic | does not change |
| C=CC(=O)Nc1cc(Nc2nccc(-c3cn(CC(F)(F)F)c4ccccc34)n2)c(OC)cc1N(C)CCN(C)C [crystalline form I of phosphate] | about 0.61% | slightly hygroscopic | does not change |
| C=CC(=O)Nc1cc(Nc2nccc(-c3cn(CC(F)(F)F)c4ccccc34)n2)c(OC)cc1N(C)CCN(C)C [crystalline form I of p-toluenesulfonate] | about 0.55% | slightly hygroscopic | does not change |
| C=CC(=O)Nc1cc(Nc2nccc(-c3cn(CC(F)(F)F)c4ccccc34)n2)c(OC)cc1N(C)CCN(C)C [crystalline form III of hydrochloride] | about 1.86% | slightly hygroscopic | does not change |
| C=CC(=O)Nc1cc(Nc2nccc(-c3cn(CC(F)(F)F)c4ccccc34)n2)c(OC)cc1N(C)CCN(C)C [crystalline form I of succinate] | about 0.57% | slightly hygroscopic | does not change |
| C=CC(=O)Nc1cc(Nc2nccc(-c3cn(CC(F)(F)F)c4ccccc34)n2)c(OC)cc1N(C)CCN(C)C [crystalline form I of sulfate] | about 3.31% | hygroscopic | does not change |
